In patent publication US20260193644A1, “Compositions and Methods For Modulation of Tumor Suppressors and Oncogenes” (FLAGSHIP PIONEERING INNOVATIONS VII, LLC, priority 2022, published 2026):
“And” between values parts separate entries of the source, which are not always exact repeats. Equal values may be shown once.

Key:
Assay type in all cases: cell-based
[1] = test system: Jurkat cells; experiment: Caspase-Glo 3/7 apoptosis assay, peptide-treated Jurkat cells; details: listed = significant
Description: (§1) Cell Culture: Tumor cell lines HCT-116 (Colon Cancer Cell line, ATCC) and U2OS (Osteoscarcoma Cell line, ATCC) cells were grown adherently in ATCC-formulated McCoy's 5a medium supplemented with 10% FBS and 1× penicillin-streptomycin at 37° C. (5% CO2). Jurkat cells (acute T-cell leukemia cell line, ATCC) were grown as suspension cultures in ATCC-formulated RPMI-1640 supplemented with 10% FBS and 1× penicillin-streptomycin at 37° C. (5% CO2). HEP-G2 cells (Liver Cancer Cell line, ATCC) cells were grown adherently in ATCC-formulated Eagle's Minimum Essential Medium (EMEM) supplemented with 10% FBS and 1× penicillin-streptomycin at 37° C. (5% CO2).
(§2) Peptide Treatment: Target protein SEQ ID NO: 37997 was synthesized through Fluorenylmethyloxycarbonyl (Fmoc) protection group chemistry using Solid Phase Peptide Synthesis (SPPS). 5 μM of target peptide and control peptides were added to a 96 well plate containing 10,000 cells (100 μL/well). A white-walled 96-well plate adequate for cell culture and compatible with the luminometer was used. (Corning)
(§3) Apoptosis Assay: Following 24 hrs of peptide treatment, an equal volume reconstituted Caspase-Glo® 3/7 assay reagent mixture (Promega) was added to the cells. The contents of wells were gently mixed using a plate shaker at 300-500 rpm for 30 seconds. The plate was then Incubate at room temperature for 3 hours. The treated plates were then read for luminescence on Promega™ GloMax® Plate Reader. A blank reaction that contained caspase-Glo® 3/7 reagent, vehicle and cell culture medium without cells was used to measure background luminescence. The blank reaction values were subtracted from experimental values. A negative control that contained caspase-Glo® 3/7 reagent and vehicle-treated cells in medium was included to determine the basal caspase activity of the cell culture system. Significant difference in apoptosis was determined using ANOVA analysis by comparing cells treated with SEQ ID NO: 37997 peptide to cells treated with an irrelevant control peptide, or vehicle control treated cells.

[2] = test system: HCT-116 cells; experiment: Caspase-Glo 3/7 apoptosis assay, peptide-treated HCT-116 cells; details: for peptides inducing significant apoptosis (z-score vs vehicle control): listed = significant
Description: as §1, §2, §3

[3] = test system: U2OS cells; experiment: WST-1 proliferation assay on U2OS cells treated with peptide
[4] = test system: U2OS cells; experiment: Caspase-Glo 3/7 apoptosis assay, peptide-treated U2OS cells; details: for z-score compared to vehicle control (peptides inducing significant apoptosis): listed = significant
Description: as §1, §2, §3

[5] = test system: HCT116 cells; experiment: WST-1 proliferation assay on HCT116 cells treated with peptide
Description: Proliferation: HCT-116 cells were plated in 96 well plate (5,000 cells/well) grown in standard media supplemented with 10% FBS. After 48 hours incubation at 37° C. (5% CO2), the cells are subjected to the WST-1 ([…]) assay. The WST-1 assay (Sigma) is a measure of the metabolic activity (i.e. proliferative rate) of cells. […]

[6] = molecular target: T1, C3AR1 (Homo sapiens, UniProt Q16581); experiment: PathHunter β-Arrestin C3AR1 human complement peptide GPCR agonist assay (gpcrMAX screening and hit-confirmation); details: for % activity with respect to known agonist, C3A Receptor Agonist: hit-confirmation
T1 sequence (Q16581 1-482): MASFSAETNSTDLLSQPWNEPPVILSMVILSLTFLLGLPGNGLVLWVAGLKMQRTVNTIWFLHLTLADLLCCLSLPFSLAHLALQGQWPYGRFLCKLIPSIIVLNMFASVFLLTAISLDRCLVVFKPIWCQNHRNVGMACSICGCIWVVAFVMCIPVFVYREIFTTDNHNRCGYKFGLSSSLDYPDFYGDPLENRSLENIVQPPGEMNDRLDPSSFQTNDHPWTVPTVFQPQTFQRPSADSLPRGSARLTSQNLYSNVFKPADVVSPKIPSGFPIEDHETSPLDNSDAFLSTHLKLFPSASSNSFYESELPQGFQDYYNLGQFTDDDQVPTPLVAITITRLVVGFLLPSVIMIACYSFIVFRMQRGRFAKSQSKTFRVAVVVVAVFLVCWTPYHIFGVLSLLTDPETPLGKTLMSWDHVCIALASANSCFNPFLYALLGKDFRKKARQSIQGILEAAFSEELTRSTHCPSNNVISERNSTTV
Description: SEQ ID NO: 30949 blocks CXCR4 and cancer cell migration, making it suitable in the treatment of multiple cancers. Whereas SEQ ID NO: 34229 agonizes C3AR1, a key regulator of immune response and inflammation. The target proteins SEQ ID NO: 30949 and SEQ ID NO: 34229 were treated with gpcrMAX, which is a comprehensive panel covering 168 G protein-coupled receptors (GPCRs) from over 60 distinct receptor families. This panel utilizes PathHunter® β-Arrestin technology (Eurofins DiscoverX). PathHunter β-Arrestin GPCR cell lines are engineered to co-express the ProLink™ (PK) tagged GPCR and the Enzyme Acceptor (EA) tagged β-Arrestin. Activation of the GPCR-PK induces β-Arrestin-EA recruitment, forcing complementation of the two β-galactosidase enzyme fragments (EA and PK). The resulting functional enzyme hydrolyzes substrate to generate a chemiluminescent signal.
Cell Handling: PathHunter® cell lines were expanded from freezer stocks according to standard procedures. Cells were seeded in a total volume of 20 μL into white walled, 384-well microplates and incubated at 37° C. for the appropriate time prior to testing. […]
Signal Detection: Assay signal was generated through a single addition of 12.5 or 15 μL (50% v/v) of PathHunter® Detection reagent cocktail, followed by a one-hour incubation at room temperature. Microplates were read following signal generation with a PerkinElmer Envision™ instrument for chemiluminescent signal detection.
Data Analysis: Compound activity was analyzed using CBIS data analysis suite (ChemInnovation, CA). For agonist mode assays, percentage activity was calculated using the following formula: % Activity=100%×(mean RLU of test sample−mean RLU of vehicle control)/(mean MAX control ligand−mean RLU of vehicle control). For antagonist mode assays, percentage inhibition was calculated using the following formula: % Inhibition=100%×(1−(mean RLU of test sample−mean RLU of vehicle control)/(mean RLU of EC80 control−mean RLU of vehicle control)).

[7] = test system: HCT116 colon cancer cell line; experiment: WST-1 proliferation assay on HCT116 cells stably over-expressing target protein; details: 48 hours
Description: Over-expression: Stable over-expression tumor cell lines were made by transduction using lentivirus. For virus production, HEK-293T cells were cultured in DMEM with high glucose and GlutaMAX™ medium (ThermoFisher) supplemented with 10% FBS. After 24 h, cells were transfected using lipofectamine 3000 (ThermoFisher) of Lentiviral packaging plasmid mix (CELLECTA) and pGenLenti plasmids (GenScript Inc) containing: 1) no insert, 2) Target Protein encoding sequence, and 3) the AP2A1 protein (positive control for cell proliferation; https://doi.org/10.1038/sj.one.1205216), into HCT116 (Colon cancer cell line; ATCC). A Myc-tag (EQKLISEEDL) was added to the c-terminus of the expressed protein. After 48 hr post-transfection, culture media containing viruses was collected, loaded onto a 10 ml syringe and filtered through a 0.45 μm filter. For cell transduction, HCT116 colorectal cancer cells were seeded in 6-well plates, the virus was added to the cells. After post-transduction, stable cell mixed populations are selected for with puromycin for 14 days. Expression of the Target Protein and controls are confirmed by immunoblot of 50 μg of cell lysate using anti-myc-tag polyclonal antibody (CST).
Proliferation: Polyclonal cell lines that over-express the Target Protein or control, wild-type HCT-116 cells, were plated in 96 well plate (10,000 or 5,000 cells per well) grown in standard media in both low serum (0.1% FBS) and high serum (10% FBS) conditions, respectively. After 48 hours, the cells are subjected to the WST-1 ([…]) assay. The WST-1 assay (Sigma) is a measure of the metabolic activity of group of cells. The higher the metabolic activity the higher the proliferation rate. Significant differences in proliferation are determined by comparing protein-expressing cell lines with a stable cell line of the empty expression vector (control) using ANOVA analysis.

[8] = Low sera (continued), 0.5 uM, head 3 SD
[9] = 5 μM peptide, 24 hrs, vs vehicle control
[10] = Low sera (continued), 0.1 uM, head 4 SD

SEQ ID NO: 27193: ORF peptide; sequence only in Sequence Listing (LRFKVLLRVLFFMAPVPPQVFGQ; listed as Homo sapiens)
peptides inducing significant apoptosis vs vehicle control [1]: SEQ ID NO: 27193 | peptides inducing significant apoptosis (z-score vs vehicle control) [2]: SEQ ID NO: 27193 | proliferation hit score, High sera ([3]; 5 uM, head 5 SD): 15.33 SD | proliferation hit score, Low sera [3, 8]: 1.975 SD | proliferation hit score, Low sera ([3]; Low sera, 5 uM, head 2 SD): 2.319 SD | z-score compared to vehicle control (peptides inducing significant apoptosis) [4]: SEQ ID NO: 27193 | proliferation hit score, High sera ([5]; 0.5 uM, head 3 SD): 1.079 SD | proliferation hit score, High sera ([5]; 5 uM, head 3 sd): 0.8327 SD | proliferation hit score, Low sera [5, 8]: 1.081 SD | proliferation hit score, Low sera ([5]; Low sera, 5 uM, head 2 SD): 0.6897 SD

SEQ ID NO: 34229: novel peptide GPCR ligand that agonizes C3AR1; sequence only in Sequence Listing (MWILRDRAVHELQAVLLALVLGR; listed as Homo sapiens)
peptides inducing significant apoptosis vs vehicle control [1]: SEQ ID NO: 34229 | GPCR ligand mode at C3AR1 ([6]; gpcrMAX panel): agonist of C3AR1 | % activity with respect to known agonist, C3A Receptor Agonist ([6]; 0.3 μM): significant activity | % activity with respect to known agonist, C3A Receptor Agonist ([6]; 1 μM): significant activity | z-score compared to vehicle control (peptides inducing significant apoptosis) [4]: SEQ ID NO: 34229

SEQ ID NO: 37997: synthetically produced target protein, secreted tumor suppressor; sequence only in Sequence Listing (MSRLSLSWESLTNAIWPLDLQDIKGYLPNPLPQRVNLRKQILSISKEPN; listed as Homo sapiens)
basal apoptosis levels [2, 9]: increase in basal apoptosis levels | proliferation hit score, High sera ([3]; 1 uM, head 5 SD): −5.9599 SD | proliferation hit score, High sera ([3]; 10 uM, head 8 SD): −13.23 SD | proliferation hit score, Low sera ([3]; Low sera (continued), 0.1 uM, head 2 SD): −2.359 SD | proliferation hit score, Low sera [3, 10]: 1.922 SD | proliferation hit score, Low sera ([3]; Low sera, 1 uM, head 5 SD): 0.3203 SD | proliferation hit score, Low sera ([3]; Low sera, 10 uM, head 6 SD): −16.09 SD | basal apoptosis levels [4, 9]: increase in basal apoptosis levels | proliferation (WST-1) vs irrelevant peptide or untreated cells ([5]; 10 μM, 10% serum, 48 hours): significantly decreases proliferation | proliferation hit score, High sera ([5]; 0.1 uM, head 3 SD): −3.114 SD | proliferation hit score, High sera ([5]; 1 uM, head 2 SD): −5.8 SD | proliferation hit score, High sera ([5]; 10 uM, head 4 SD): −11.51 SD | proliferation hit score, Low sera ([5]; Low sera, 1 uM, head 3 SD): −3.015 SD | proliferation hit score, Low sera ([5]; Low sera, 10 uM, head 3 SD): −6.915 SD

B1: SEQ ID NO: 27301: target protein over-expressed (Myc-tagged) in stable HCT116 cell line; oncogene (protein, listed as Homo sapiens)
chain: MVEKSHPSSLPTLPQPLNHCPETYMLLSAAPSGASQLLSTLTLFLKKHRMDIRTISLRMLLSHTGKLAL
modifications: Myc tag
notes: oncogene
proliferation (WST-1) on over-expression vs Empty Vector ([7]; high serum (10% FBS)): significantly increases proliferation | proliferation (WST-1) on over-expression vs Empty Vector ([7]; low serum (0.1% FBS)): significantly increases proliferation

B2: SEQ ID NO: 27000: ORF peptide; sequence only in Sequence Listing (peptide, listed as Homo sapiens)
chain: MNLNPRLRLQVISFHPHPKALAVTLLPALTQSLCLCMASCVYSGPKGFLFLFFPQTAQEKHMKNIT
peptides inducing significant apoptosis vs vehicle control [1]: SEQ ID NO: 27000 | peptides inducing significant apoptosis (z-score vs vehicle control) [2]: SEQ ID NO: 27000 | proliferation hit score, Low sera [3, 10]: 7.758 SD and 7.542 SD | proliferation hit score, Low sera ([3]; Low sera, 1 uM, head 5 SD): 5.685 SD and 9.031 SD | z-score compared to vehicle control (peptides inducing significant apoptosis) [4]: SEQ ID NO: 27000
